The record followed here is ChEMBL document CHEMBL1201862, “PubChem BioAssay data set” (2004).

Common to all, as to test: NCI tumour cell line growth inhibition, 48 h
For assay [1], the system named is DLD-1.
For assay [2], the system named is DMS-114.
The test system of assay [3] is DMS-273.
Assay [4] relates to HOP-18.
For assay [5], the system named is KM-20L2.
Assay [6] has as its system LXFL 529.
In assay [7] the test system is RXF 631.
In assay [8] the test system is SNB-78.
Assay [9] deals with XF498.

Each structure is given as a SMILES string.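 These data come from cells grown in 96-well plates and exposed to compound for 48 hours at five concentrations. Abbreviation: GI50, concentration required for 50% inhibition of growth.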 Calls of active or inactive are those of the source. Rule as the data show it: active = GI50 up to about 1.1 µM and inactive = higher.

Take `O=C1CCC(c2nc3ccccc3o2)C(=O)N1` (configuration not stated): the GI50 in [1], in assay [2], in assay [3], in assay [4], in assay [5] and in assay [6] was > 100 µM (inactive) throughout. Also, the GI50 in assay [7] and in assay [8] was > 100 µM (inactive) throughout.

`CCCCCCCCCCn1cccc1/C=C/c1ccc(/C=C/c2cccn2CCCCCCCCCC)cc1`: the GI50 in assay [1], in assay [2], in assay [3], in assay [4], in [5] and in assay [6] was > 100 µM (inactive) each time. The GI50 in assay [8] and in assay [9] was > 100 µM (inactive) each time.

Consider `COc1ccc(C(=O)C=C2NCCN2)cc1`, for which the GI50 in [1], in assay [2], in [3], in [4], in assay [5] and in assay [6] was > 100 µM (inactive) in each case. In addition, the GI50 in assay [8] is > 100 µM (inactive).

`O=C1c2ccccc2C(=O)C1C(c1ccc(F)cc1)C1C(=O)c2ccccc2C1=O`: the GI50 in [1], in [2], in [3], in assay [4], in assay [5] and in [6] was > 100 µM (inactive) in each case. The GI50 in assay [7], in assay [8] and in assay [9] was > 100 µM (inactive) in each case.

With `N#CC1(N2CCCC2)CCC2(CC1)OCCO2`, the GI50 in [2] was > 100 µM (inactive); in assay [3], > 10 µM (inactive); in [5], > 100 µM (inactive); in assay [8] it was > 100 µM (inactive).

`COc1ccc(Nc2nc3cc(C(F)(F)F)ccc3nc2-c2ccccc2)cc1OC`: the GI50 was 21.4 µM (inactive) in assay [1]; 10.3 µM (inactive) in [2]; 6.08 µM (inactive) in assay [3]; < 0.01 µM (active) in assay [4]; 49 µM (inactive) in assay [6]; 25.4 µM (inactive) in [8]. Besides, in [9], the GI50 was 1.71 µM (inactive).

`Cc1ccc(NC(=O)NC(=O)c2ccc([N+](=O)[O-])cc2[N+](=O)[O-])cc1Oc1ncc(Cl)cn1`: the GI50 in [1] was 0.421 µM (active); in assay [2], 0.484 µM (active); in assay [3] it was 0.318 µM (active); in assay [4], 10.3 µM (inactive); in [5], 0.234 µM (active); in [6], 0.36 µM (active). Moreover, the GI50 was 0.346 µM (active) in assay [8] and 0.843 µM (active) in [9].

For the molecule `Cc1cc(C)nc(NS(=O)(=O)c2ccc(Nc3c4ccccc4nc4c(C(=O)Nc5ccc(S(=O)(=O)Nc6cc(C)on6)cc5)ccc(Cl)c34)cc2)n1`, the GI50 in assay [1] is 17.2 µM (inactive); in assay [5], 19.5 µM (inactive); in [6], 18.5 µM (inactive); in assay [7], 20.7 µM (inactive); in [8] it was 29.2 µM (inactive); in [9], 18.7 µM (inactive).

As to `O=C(O)CCNCCCCNCCC(=O)O`, the GI50 in [1], in assay [3], in assay [4], in assay [5], in assay [6] and in assay [9] was > 100 µM (inactive) in each case.

As to `CC(=O)OCC1OC(OC2CC3C(C)(C)C(O)CC[C@]3(C)C3CCC45CC4(CC[C@H]5C(C)CC(O)C4OC4(C)C)[C@]23C)C(O)C(O)C1O` (some centres not stated), the GI50 was 8.09 µM (inactive) in assay [1]; 5.21 µM (inactive) in [2]; 8 µM (inactive) in assay [3]; 7.08 µM (inactive) in [4]; 8.13 µM (inactive) in assay [5]; 5.83 µM (inactive) in assay [6]. The GI50 in assay [9] was 4.13 µM (inactive).

`CN(C)/N=N/c1c[nH]nc1C(N)=O`: the GI50 in [1], in [2], in [3], in assay [4], in assay [5] and in [6] was > 100 µM (inactive) each time. In addition, in [9], the GI50 is > 100 µM (inactive).

With `CC1=Nn2c(nnc2-c2ccc(N)cc2)NC(C)(C)C1`, the GI50 in assay [1], in assay [2], in assay [3], in assay [4], in [5] and in assay [6] was > 100 µM (inactive) in each case. In addition, the GI50 in assay [7], in assay [8] and in assay [9] was > 100 µM (inactive) in each case.

For the molecule `N#CC1(CCCCl)CCCCC1`, the GI50 in assay [1] was > 100 µM (inactive); in assay [2] it was > 100 µM (inactive); in assay [3], > 100 µM (inactive); in assay [4], 72.9 µM (inactive); in assay [5], > 100 µM (inactive); in assay [6], > 100 µM (inactive). Further, the GI50 in assay [7], in assay [8] and in assay [9] was > 100 µM (inactive) in each case.

For `C=CCOC(C)n1c(C)c(Br)c(=O)[nH]c1=O` (configuration not stated), the GI50 in assay [1], in assay [2], in assay [3], in [5], in [6] and in [9] was > 100 µM (inactive) in each case.

Consider `CCCCCCCCCCCc1cc(=O)c2c(O)cccc2o1`, for which the GI50 was > 100 µM (inactive) in [1]; 38.7 µM (inactive) in assay [2]; 56.6 µM (inactive) in [3]; > 100 µM (inactive) in assay [4]; 55.1 µM (inactive) in assay [6]; > 100 µM (inactive) in assay [7]. For the same molecule, the results for the GI50 in assay [8] and in [9] were > 100 µM (inactive) and 42.8 µM (inactive), respectively.

Consider `Clc1ccc(C2SCc3nc4ccccc4n32)c(Cl)c1` (configuration not stated), for which the GI50 in assay [1] is 15.7 µM (inactive); in assay [2] it was 8.3 µM (inactive); in assay [4], 19.5 µM (inactive); in assay [5], 21.4 µM (inactive); in assay [6] it was 11.9 µM (inactive); in assay [9], 19.1 µM (inactive).

Regarding `COC12OCCN(C)C1=CC(=O)C1=NNC(C)C12` (configuration not stated), the GI50 in assay [1], in [2], in assay [3], in [4], in [6] and in [7] was > 100 µM (inactive) each time. Also, the GI50 in [8] is > 100 µM (inactive).

For the molecule `CCc1ccc(Cc2ccc(CC)c(NC(=O)C(=O)Cc3nc4ccccc4nc3C)c2CC)c(CC)c1NC(=O)C(=O)Cc1nc2ccccc2nc1C`, the GI50 is > 100 µM (inactive) in [1]; 47.5 µM (inactive) in assay [2]; > 100 µM (inactive) in assay [5]; 54.1 µM (inactive) in assay [6]; 84.9 µM (inactive) in assay [7]; 76.2 µM (inactive) in [8].

As to `COc1ccc(C=C(c2ccc(OCc3ccccc3)cc2)c2ccc(OCc3ccccc3)cc2)cc1`, the GI50 in [1], in assay [2], in assay [3], in assay [4], in [5] and in assay [6] was > 100 µM (inactive) in each case. The GI50 in assay [7], in assay [8] and in assay [9] was > 100 µM (inactive) throughout.

On to `N#C/C(=C\c1cc(O)ccc1O)C(N)=O`, for which the GI50 in [1] was 70.6 µM (inactive); in assay [2] it was 24.8 µM (inactive); in assay [3], 47.3 µM (inactive); in assay [5] it was 46.8 µM (inactive); in assay [6], 35.6 µM (inactive); in [7], 58.1 µM (inactive). For the same molecule, the GI50 in [8] was 25.6 µM (inactive); in assay [9], 65.3 µM (inactive).

For the molecule `NC(CCCNCc1ccccc1)C(=O)O` (configuration not stated), the GI50 in [1], in assay [2], in [3], in assay [4], in assay [5] and in assay [6] was > 100 µM (inactive) each time. Also, in [7], the GI50 is > 100 µM (inactive).

With `Cc1c2ccncc2c(C)c2c1[nH]c1ccc(OC(C)(C)C)cc12`, the GI50 was 2.39 µM (inactive) in [1]; 2.02 µM (inactive) in assay [2]; 1.86 µM (inactive) in assay [3]; 1.78 µM (inactive) in assay [5]; 2.23 µM (inactive) in assay [6]; 2.45 µM (inactive) in assay [7]. Also, the results for the GI50 in assay [8] and in assay [9] were 2.41 µM (inactive) and 1.93 µM (inactive), respectively.

For the molecule `CC(=O)OC1CC2C(C)(C)C(=O)C=C[C@]2(C)C2CCC3(C)C(=CCC3[C@H](CO)C[C@H](O)C(=O)C(C)(C)O)[C@]12C` (some centres not stated), the GI50 in [1] is 14.9 µM (inactive); in assay [2], 33.9 µM (inactive); in assay [3], 30.9 µM (inactive); in assay [4], 54.1 µM (inactive); in [5] it was 13.6 µM (inactive); in [6] it was 42.4 µM (inactive). The GI50 is 30.5 µM (inactive) in assay [7] and 76.4 µM (inactive) in assay [8].

On to `COC(=O)C1=C(C(=O)OC)C2(CCCCCC2=O)OC1=O` (configuration not stated), for which the GI50 in assay [2], in assay [3], in assay [5], in assay [6], in [7] and in assay [8] was > 100 µM (inactive) in each case. Moreover, the GI50 in assay [9] was > 100 µM (inactive).

For the molecule `O=C(O)c1cc(S(=O)(=O)N/N=C\c2c3ccccc3[n+]([O-])c3ccccc23)ccc1O`, the GI50 in assay [1] was 16.7 µM (inactive); in [2] it was 12.7 µM (inactive); in assay [3] it was 7.16 µM (inactive); in [4], 11.7 µM (inactive); in assay [5], 13.3 µM (inactive); in assay [6], 12.2 µM (inactive). The GI50 in assay [8] was 20.6 µM (inactive).
